{"source": "paper PMC5115179", "about": "(Pharmacology Research & Perspectives, 2016)", "key": {"in vivo": {"experiment": "in vivo", "type": "in vivo", "conditions": "mouse; for half-life / Kp / AUC / CL/F / Cmax: both sexes, ip; for Kp: C57/B6, brain/serum, read-out: Brain to sera AUC ratio", "description": "In pharmacokinetic studies, mice were not randomized to groups but instead assigned to treatment and time points such that there was no gender of weight bias. Studies were initiated in the morning and following treatment mice were euthanized by CO2 asphyxiation and cervical dislocation at predetermined time points (0.25, 0.5, 1, 2, 4, 8, 12, and 24 h) (n = 3–4 animals per time point). Blood (via cardiac puncture), brain, liver, and kidney were rapidly collected, tissues were snap‐frozen in liquid nitrogen, and stored at −80°C prior to further analysis. Sera (20–100 μL) was obtained by low‐speed centrifugation at 2000 × g for 10 min at 6°C. Tissues were suspended in phosphate‐buffered saline (PBS, 1:5, w/v) and homogenized via mechanical homogenization before preparation for LC‐MS/MS analysis.\nSamples (3 μL) were injected onto a Kinetex PFP (50 × 2.1 mm, 1.7 μm particle size) UPLC column and eluted with a binary gradient consisting of water with 0.1% formic acid (mobile phase A) and methanol with 0.1% formic acid (mobile phase B). Initially, 5% mobile phase B was held for 0.4 min at a flow rate of 0.3 mL/min, then increased linearly to 85% over 2.6 min. This composition was held constant for 0.5 min then returned to initial conditions within 6 sec and equilibrated for an additional 1.8 min. Eluent was directed to waste for the initial 0.4 min then to an ABI Sciex 6500 Qtrap tandem mass spectrometer. […] Where necessary, samples were diluted in blank matrices for analysis. Methods were developed using the criteria presented in the FDA bioanalytical guidance document (www.fda.gov, 2013).\nPharmacokinetic outcomes were obtained via standard noncompartmental methods using Kinetica (version 5.1, Thermo Fisher Scientific, Waltham, MA). The maximum concentration (C max) was obtained directly from the concentration–time profiles. Area under the concentration–time curve (AUC) from time zero to the last collected time point was determined using the trapezoidal method with linear up/log down interpolation. For sera and urine, data above the limit of detection but below the LLOQ were computed as LLOQ/2 (7 nmol/L, 7.5 μg/mL, respectively) to allow for the recovery of the terminal half‐life as reported previously (Beal 2001). To obtain estimates of variability around the mean of AUC and C max, the method of Bailer–Satterwaithe was employed due to the destructive sampling approach (Nedelman et al. 1995). Furthermore, as a result of the destructive sampling approach outcomes for half‐life, apparent volume of distribution and apparent clearance could not be reported with a term for uncertainty."}, "pigeon": {"tested_on": "pigeon", "design": "method as in Koek et al., 2006", "conditions": "pigeon, 54, 178, 320, 560 mg/kg, route ns; ref Koek et al., 2006; cited from earlier work"}, "rat [1]": {"tested_on": "rat", "design": "method as in Colombo et al., 1999", "conditions": "400 mg/kg i.p., ref Colombo et al., 1999; cited from earlier work"}, "rat [2]": {"tested_on": "rat", "design": "method as in Colombo et al., 1995", "conditions": "rat, 12.5, 25, 50 mg/kg i.p.; ref Colombo et al., 1995; cited from earlier work"}, "[3]": {"conditions": "100 mg/kg i.p., tissue density assumed equal to water"}, "[4]": {"conditions": "300 mg/kg i.p., tissue density assumed equal to water"}, "[5]": {"conditions": "500 mg/kg i.p., tissue density assumed equal to water"}}, "note": "Like-named read-outs stand apart in the source and are kept apart here.", "data": [{"molecule": "O=C(O)/C=C1\\CCCc2ccccc2C1O", "note": "(stereo not shown) [NCS‐382, 6,7,8,9‐tetrahydro‐5‐hydroxy‐5H‐benzo‐cyclohept‐6‐ylideneacetic acid]", "values": [{"measurement": "half-life", "setting": "in vivo; C57/B6, brain, 100 mg/kg i.p., read-out: Brain t 1/2 (converted)", "value": 58, "unit": "min"}, {"measurement": "half-life", "setting": "in vivo; C57/B6, brain, 300 mg/kg i.p., read-out: Brain t 1/2 (converted)", "value": 53, "unit": "min"}, {"measurement": "half-life", "setting": "in vivo; C57/B6, brain, 500 mg/kg i.p., read-out: Brain t 1/2 (converted)", "value": 45.7, "unit": "min"}, {"measurement": "Kp", "setting": "in vivo; 100 mg/kg i.p.", "value": 1.2}, {"measurement": "Kp", "setting": "in vivo; 300 mg/kg i.p.", "value": 0.72}, {"measurement": "Kp", "setting": "in vivo; 500 mg/kg i.p.", "value": 1.8}, {"measurement": "half-life", "setting": "in vivo; C57/B6, kidney, 100 mg/kg i.p., read-out: Kidney t 1/2 (converted)", "value": 18.5, "unit": "min"}, {"measurement": "AUC", "setting": "in vivo; C57/B6, serum, 100 mg/kg i.p.", "value": "119 ± 38", "unit": "µM·h"}, {"measurement": "CL/F", "setting": "in vivo; C57/B6, serum, 100 mg/kg i.p.", "value": 63.3, "unit": "mL/min/kg"}, {"measurement": "Cmax", "setting": "in vivo; C57/B6, serum, 100 mg/kg i.p.", "value": "241 ± 106", "unit": "µM"}, {"measurement": "half-life", "setting": "in vivo; C57/B6, serum, 100 mg/kg i.p., read-out: Serum t 1/2 (converted)", "value": 14.6, "unit": "min"}, {"measurement": "AUC", "setting": "in vivo; C57/B6, serum, 300 mg/kg i.p.", "value": "436 ± 42", "unit": "µM·h"}, {"measurement": "CL/F", "setting": "in vivo; C57/B6, serum, 300 mg/kg i.p.", "value": 52.5, "unit": "mL/min/kg"}, {"measurement": "Cmax", "setting": "in vivo; C57/B6, serum, 300 mg/kg i.p.", "value": "374 ± 49", "unit": "µM"}, {"measurement": "half-life", "setting": "in vivo; C57/B6, serum, 300 mg/kg i.p., read-out: Serum t 1/2 (converted)", "value": 28.1, "unit": "min"}, {"measurement": "AUC", "setting": "in vivo; C57/B6, serum, 500 mg/kg i.p.", "value": "717 ± 83", "unit": "µM·h"}, {"measurement": "CL/F", "setting": "in vivo; C57/B6, serum, 500 mg/kg i.p.", "value": 53.2, "unit": "mL/min/kg"}, {"measurement": "Cmax", "setting": "in vivo; C57/B6, serum, 500 mg/kg i.p.", "value": "451 ± 49", "unit": "µM"}, {"measurement": "half-life", "setting": "in vivo; C57/B6, serum, 500 mg/kg i.p., read-out: Serum t 1/2 (converted)", "value": 41, "unit": "min"}, {"measurement": "Serum V/F", "setting": "in vivo; 100 mg/kg i.p.", "value": 2.62, "unit": "L/kg"}, {"measurement": "time after administration up to which detectable in sera", "setting": "in vivo; 100 mg/kg i.p.", "value": "up to 4 h"}, {"measurement": "time after administration up to which quantifiable in brain", "setting": "in vivo; 100 mg/kg i.p.", "value": "up to 8 h"}, {"measurement": "time after administration up to which quantifiable in kidney", "setting": "in vivo; 100 mg/kg i.p.", "value": "up to 4 h"}, {"measurement": "time after administration up to which quantifiable in liver", "setting": "in vivo; 100 mg/kg i.p.", "value": "up to 2 h"}, {"measurement": "time after administration up to which quantifiable in sera", "setting": "in vivo; 100 mg/kg i.p.", "value": "up to 2 h"}, {"measurement": "Brain AUC", "setting": "in vivo; [3]", "value": "139 ± 60", "unit": "µM·h"}, {"measurement": "Brain Cmax", "setting": "in vivo; [3]", "value": "60 ± 9.5", "unit": "µM"}, {"measurement": "Kidney AUC", "setting": "in vivo; [3]", "value": "24.5 ± 5.3", "unit": "µM·h"}, {"measurement": "Kidney Cmax", "setting": "in vivo; [3]", "value": "23.6 ± 3.0", "unit": "µM"}, {"measurement": "Liver AUC", "setting": "in vivo; [3]", "value": "1150 ± 595", "unit": "µM·h"}, {"measurement": "Liver Cmax", "setting": "in vivo; [3]", "value": "1695 ± 2030", "unit": "µM"}, {"measurement": "Serum V/F", "setting": "in vivo; 300 mg/kg i.p.", "value": 2.93, "unit": "L/kg"}, {"measurement": "Brain AUC", "setting": "in vivo; [4]", "value": "313 ± 33", "unit": "µM·h"}, {"measurement": "Brain Cmax", "setting": "in vivo; [4]", "value": "141 ± 45", "unit": "µM"}, {"measurement": "Serum V/F", "setting": "in vivo; 500 mg/kg i.p.", "value": 4.25, "unit": "L/kg"}, {"measurement": "Brain AUC", "setting": "in vivo; [5]", "value": "1280 ± 175", "unit": "µM·h"}, {"measurement": "Brain Cmax", "setting": "in vivo; [5]", "value": "530 ± 70", "unit": "µM"}, {"measurement": "effects of diazepam", "setting": "pigeon", "value": "GHB, its precursors 1,4-BD and GBL, and NCS-382 did not attenuate the effects of diazepam."}, {"measurement": "blood ethanol levels", "setting": "rat [1]", "value": "NCS-382 reduces blood ethanol levels, likely due to a lessened absorption of ethanol from the gastrointestinal tract."}, {"measurement": "discriminative stimulus effects of GHB", "setting": "rat [2]", "value": "Blockade of the discriminative stimulus effects of gamma-hydroxybutyric acid (GHB) by the GHB receptor antagonist NCS-382."}]}]}
